A value given as a limit tells only on which side of the number the result lay.

`Cn1ncc(Cl)c(Cl)c1=O`: the melting point – broadly, the temperature, or range, at which the solid turns liquid – lay in the range of 87 to 89 °C.

In turn, `O=C(O)Cc1csc(N2CCNC2=O)n1` yielded a melting point of 179 to 181 °C.

As for `O=[N+]([O-])c1ccc2nc(Cl)ccc2c1`, the melting point was 224 to 226 °C.

`O=C1Nc2c(F)ccc(Br)c2C1=O`: the melting point was 274 to 276 °C.

For the compound `O=C1CC2(CCCCC2)Oc2cc(O)ccc21`, the melting point is 169 to 171 °C.

`CC(=O)Nc1ccc(O)c(C(=O)O)c1` gave a melting point of 221 to 223 °C.

With `CN1CC(=O)NC(=O)C1`, the melting point fell in the range of 99 to 101 °C.

On to `O=C(O)c1ccc(F)c(COc2ccc(F)cc2)c1`, for which the melting point fell in the range of 149 to 151 °C.

`COc1ccc(NS(=O)(=O)c2cc(N)ccc2N2CCOCC2)cc1` registered a melting point of 232 to 234 °C.

Consider `CN1CCN(C(=O)C2CCCNC2)CC1` (stereo unspecified), for which the melting point was 85 to 87 °C.

Turning to `CNc1cnnc2ccccc12`, the melting point fell in the range of 232 to 234 °C.

Take `Cc1ccc(S(=O)(=O)OC(c2nc(C)cs2)C(F)(F)F)cc1` (stereo unspecified): the melting point fell in the range of 105 to 107 °C.

As to `COc1ccc(C=CC(=O)O)cc1S(=O)(=O)N1CCCCC1`, the melting point was 219 to 221 °C.

In turn, `COc1cc(S(=O)(=O)Cl)c(Cl)cc1C(=O)O` returned a melting point of 159 to 161 °C.

As for `O=C(O)c1cccc(S(=O)(=O)Nc2ccc(I)cc2)c1`, the melting point was in the range of 260 to 262 °C.

Compound `NC(=O)C1CCCN(c2ccc(C(=O)O)cc2)C1` (stereo unspecified) displayed a melting point of 259 to 261 °C.

`Nc1ccc(S(=O)(=O)Nc2ccc(F)cc2)cc1` registered a melting point of 162 to 164 °C.

Turning to `Nc1ccc(CC(=O)N2CCSCC2)cc1`, the melting point is 118 to 120 °C.

`NNC(=O)c1ccc(F)cc1Br` had a melting point of 151 to 153 °C.

The compound `CC(C)c1nnc(S)n1C` registered a melting point of 139 to 141 °C.

Compound `O=Cc1cc(Cl)c2ccccc2c1O` yielded a melting point of 94 to 96 °C.

With `Cc1nc(=O)cc[nH]1`, the melting point is 213 to 215 °C.

Turning to `CS(=O)(=O)Nc1ccc(CCl)cc1`, the melting point fell in the range of 107 to 109 °C.

On to `CCN(CC)C(=O)c1ccc(C(=O)O)cc1`, for which the melting point is 157 to 159 °C.

`Cc1n[nH]c(C)c1NC(=O)CCl`: the melting point was 160 to 162 °C.

`O=Cc1csc(-c2ccc(F)cc2)n1`: the melting point lay within 99 to 101 °C.

Regarding `N#Cc1ccc(NC(=O)CCCl)cc1Cl`, the melting point was in the range of 156 to 158 °C.

The compound `Sc1nnc(-c2cc3ccccc3o2)o1` registered a melting point of 249 to 251 °C.

With `N#Cc1ccc(-c2csc(N)n2)cc1`, the melting point was in the range of 267 to 269 °C.

The compound `Cc1sc2nc(-c3ccc(OC(F)F)cc3)nc(Cl)c2c1C` showed a melting point of 140 to 142 °C.

For `CCOC(=O)c1ccccc1C#N`, the melting point lay in the range of 59 to 61 °C.

`O=S(=O)(c1cccs1)N1CCNCC1` had a melting point of 98 to 100 °C.

`CCOC(=O)c1nnc(-c2ccccc2)o1` returned a melting point of 69 to 71 °C.

Regarding `CC(C)c1nn(-c2ccccc2)cc1C(=O)O`, the melting point is 169 to 171 °C.

On to `COc1ccc(Cl)cc1N1CC(C(=O)O)CC1=O` (stereo unspecified), for which the melting point lay within 150 to 155 °C.

Consider `N#CCSc1cccc(C(=O)O)c1`, for which the melting point was 144 to 146 °C.

In turn, `Cc1ccc(C2(C)CC(=O)NC2=O)cc1` (stereo unspecified) returned a melting point of 69 to 71 °C.

On to `CCc1ccc(C(=O)O)cc1S(=O)(=O)N1CCOCC1`, for which the melting point was in the range of 159 to 161 °C.

Compound `Cc1cc(C=O)c(C)n1-c1ccc2c(c1)CCC2` came in with a melting point of 71 to 75 °C.

Compound `O=C(O)c1c(O)cccc1Cl` gave a melting point of 166 to 168 °C.

In the case of `Cn1c(-c2ccccc2)cc2cc[nH]c(=O)c21`, the melting point was 201 to 203 °C.

On to `CC1CCCC(=O)N1` (stereo unspecified), for which the melting point lay in the range of 87 to 89 °C.

Take `COc1cc(C=CC(=O)O)ccc1F`: the melting point was 211 to 213 °C.

`NC(=O)c1ccc(-c2nc(CCl)cs2)cc1` yielded a melting point of 177 to 179 °C.

Consider `OC1(c2ccccc2)CCC1`, for which the melting point lay within 39 to 41 °C.

Turning to `Cc1cc(C(=O)CCl)c(C)n1CC(N)=O`, the melting point was in the range of 218 to 220 °C.

Compound `OCCc1c[nH]nc1C(F)(F)F` gave a melting point of 90 to 92 °C.

On to `N#CCc1ccc(OCc2ccc(Cl)nc2)cc1`, for which the melting point is 99 to 101 °C.

In turn, `O=C(O)c1ccc(Cl)cc1N1CCCC1=O` returned a melting point of 218 to 220 °C.

The compound `O=C(O)Cn1ccnn1` gave a melting point of 214 to 216 °C.

In turn, `O=C(O)c1cc(S(=O)(=O)Cl)c(Cl)cc1Cl` yielded a melting point of 158 to 162 °C.

The compound `CC(=O)CC(=O)Nc1ccc(C)c(Cl)c1` came in with a melting point of 108 to 110 °C.

`COCCn1nnnc1N` came in with a melting point of 114 to 116 °C.

In the case of `O=c1cc(CS)nc2ccccn12`, the melting point lay in the range of 119 to 121 °C.

For `CCNc1ccc(C(=O)OCC)cc1[N+](=O)[O-]`, the melting point was in the range of 91 to 95 °C.

The compound `Cc1cc(C(=O)NN)c(C)o1` showed a melting point of 132 to 134 °C.

For the compound `CC(C)(C)S(=O)(=O)Cc1ccc(N)cc1`, the melting point lay within 211 to 213 °C.

In turn, `O=C1CCOc2c(Cl)cc(Cl)cc21` showed a melting point of 86 to 88 °C.

Consider `COC(=O)c1cc(C)cc([N+](=O)[O-])c1N`, for which the melting point is 106 to 108 °C.

For the compound `O=C(O)c1ccccc1SCc1ccc(Br)cc1`, the melting point lay in the range of 233 to 235 °C.

In turn, `O=C(O)c1ccc(Cl)c(N2CCCS2(=O)=O)c1` gave a melting point of 212 to 214 °C.

`Nc1nnc(CCOc2ccccc2)o1` registered a melting point of 142 to 144 °C.

Compound `Cc1nc(COc2cccc(C(=O)O)c2)cs1` displayed a melting point of 153 to 155 °C.

Turning to `Cc1nncn1-c1cccc(N)c1`, the melting point fell in the range of 109 to 111 °C.

For the compound `N#CC1(N2C(=O)C=CC2=O)CCCC1`, the melting point lay in the range of 43 to 45 °C.

For the compound `COC(=O)[C@@H]1C[C@@H](O)CN1C(=O)C12CC3CC(CC(C3)C1)C2`, the melting point is 158 to 160 °C.

Regarding `Cc1[nH]c2ccc(CN)cc2c1C`, the melting point fell in the range of 149 to 151 °C.

`COC(=O)c1c(C(=O)OC)c(-c2cccc(N)c2)n2c1CCC2` displayed a melting point of 166 to 168 °C.

Turning to `CC(C)(C)OC(=O)Nc1cccc2c1OCO2`, the melting point is 89 to 91 °C.

On to `Cc1sc(N)nc1-c1ccc(Cl)cc1`, for which the melting point fell in the range of 146 to 148 °C.

Compound `Cc1ccc(C(=O)O)cc1NC(=O)Cc1ccncc1` gave a melting point of 294 to 296 °C.

In the case of `O=C(O)CC(O)c1cc(Cl)cc(Cl)c1` (stereo unspecified), the melting point lay within 198 to 200 °C.

Take `CC1(c2ccc3c(c2)CCC3)NC(=O)NC1=O` (stereo unspecified): the melting point fell in the range of 188 to 190 °C.

In turn, `CC(=O)Nc1ncccc1N` registered a melting point of 135 to 137 °C.

The compound `Cc1ccc(-n2cc(C)cn2)c(N)c1` yielded a melting point of 49 to 51 °C.

Consider `Cc1nn2cnnc2[nH]c1=O`, for which the melting point was 195 to 197 °C.

Consider `Fc1ccc(Oc2ccncc2)c(Br)c1`, for which the melting point was in the range of 74 to 76 °C.

For `CCCc1c(C(=O)O)nnn1-c1cccc(C(C)C)c1`, the melting point is 78 to 80 °C.

Compound `Clc1cc(Cl)cc(-c2nnc3ccc(Cl)nn23)c1` returned a melting point of 209 to 211 °C.

In turn, `NC(=O)c1c(C2CCCCC2)csc1N` had a melting point of 164 to 166 °C.

For the compound `COc1cc(F)c(C(=O)O)cc1OC`, the melting point lay within 192 to 194 °C.

Compound `O=C(CCl)NCC1(c2ccccc2)CCCC1` yielded a melting point of 74 to 76 °C.

`COc1ccc(O)c(C(C)N)c1` (stereo unspecified): the melting point lay within 123 to 125 °C.

Turning to `CN(C(=O)CCl)C1(c2ccccc2Cl)CCCCC1=O` (stereo unspecified), the melting point is 110 to 112 °C.

`COc1cc(C=O)ccc1OCC(=O)c1ccccc1`: the melting point was 127 to 129 °C.

Turning to `O=C(O)Cc1csc(-c2ccc(Cl)s2)n1`, the melting point lay in the range of 136 to 138 °C.

For `Cc1sc([N+](=O)[O-])cc1[N+](=O)[O-]`, the melting point was 81 to 83 °C.

Consider `Sc1nnc2c(Cl)cc(Cl)cn12`, for which the melting point was 257 to 259 °C.

`O=C(NCCc1ccccn1)OCC(F)(F)F` returned a melting point of 59 to 61 °C.

`COc1cc(Br)[nH]n1` yielded a melting point of 70 to 72 °C.

Compound `CCCc1[nH]ncc1C(=O)O` displayed a melting point of 207 to 209 °C.

`COc1cc(Br)c(S(=O)(=O)Cl)cc1C(=O)O` returned a melting point of 196 to 198 °C.

For the compound `CC(=O)Nc1cccc2c1CCCN2`, the melting point was 144 to 146 °C.

The compound `O=C(OCc1ccccc1)N1CCCC(CS(=O)(=O)Cl)C1` (stereo unspecified) registered a melting point of 81 to 83 °C.

For the compound `CC(C)(C)OC(=O)N1CCCc2ccc(N)cc21`, the melting point lay in the range of 90 to 92 °C.

In turn, `NCC1(Nc2ccccc2)CCCCC1` displayed a melting point of 61 to 63 °C.

Compound `O=C(O)c1csc(-c2ncccn2)n1` showed a melting point of 217 to 219 °C.

Compound `COc1ccc2c(c1)CCCC2CC(=O)O` (stereo unspecified) displayed a melting point of 84 to 86 °C.

`O=C(O)C1Cc2ccccc2CN1S(=O)(=O)c1ccc(F)cc1` (stereo unspecified): the melting point is 99 to 101 °C.

Take `Cn1cc(S(N)(=O)=O)cc1C(=O)O`: the melting point was 202 to 204 °C.

Take `CC(Cl)C(=O)NCc1ccccc1` (stereo unspecified): the melting point is 75 to 77 °C.

Compound `Cc1cc(C(=O)O)c(C)n1C(C)C` had a melting point of 178 to 180 °C.

`NNC(=O)CC1CC1` returned a melting point of 89 to 91 °C.

`CS(=O)(=O)c1cc(C(=O)O)ccc1Br`: the melting point is 236 to 238 °C.

For `Cn1ccc(C(=O)N2CCCCC2CC(=O)O)cc1=O` (stereo unspecified), the melting point fell in the range of 194 to 196 °C.

In turn, `NS(=O)(=O)c1ccc([N+](=O)[O-])nc1` registered a melting point of 174 to 176 °C.

In turn, `CCn1c(=O)n(CCC(=O)O)c2ccccc21` returned a melting point of 179 to 181 °C.

On to `CN(C)C(N)=S`, for which the melting point was 144 to 146 °C.

In turn, `CCOCCOc1ccc(Br)cc1/C=C/C(=O)O` returned a melting point of 109 to 111 °C.

Consider `CCOc1ccc(N)cc1S(=O)(=O)N(C)C`, for which the melting point was under 17 °C.

On to `Cc1ccc(Br)cc1S(N)(=O)=O`, for which the melting point lay in the range of 139 to 141 °C.

Consider `Cn1cnc(-c2ccc(C(=O)O)cc2)n1`, for which the melting point fell in the range of 274 to 276 °C.

`COCCCS(=O)(=O)NCC(=O)O` came in with a melting point of 59 to 61 °C.

Turning to `COC(=O)CN1CCC(C(N)=O)CC1`, the melting point lay within 126 to 128 °C.

In turn, `O=C(O)C1SCCS1` gave a melting point of 84 to 86 °C.

Consider `Cc1nn(-c2ccccc2)c(C)c1CC(=O)O`, for which the melting point was 110 to 112 °C.

`CCc1ccccc1C(=O)O` gave a melting point of 62 to 66 °C.

`Cc1ccc(C)c(-n2ncc(N)c2C)c1` came in with a melting point of 62 to 64 °C.

In turn, `CCOCc1c(C(=O)O)oc2ccccc12` registered a melting point of 103 to 105 °C.

The compound `Cc1cc(NC(=O)c2ccccc2Cl)sc1C(=O)O` returned a melting point of 223 to 225 °C.

Consider `CN(C1CCCCC1)S(=O)(=O)c1cccc(N)c1`, for which the melting point is 109 to 111 °C.

The record behind these values is a melting point compilation (Tetko et al.).
